EP0009777A1, “Retinoic- and 7,8-dehydro-retinoic-acid-N-(carboxy)phenyl amides, process for their preparation and pharmaceutical compositions containing them” (BASF Aktiengesellschaft, priority 1978, dated 1980)

Assays:
Hamster-Tracheen-Gewebe = test: Reversal of keratinisation induced by vitamin A deficiency in hamster tracheal tissue (organ culture; methods of Clamon et al. 1974, Sporn et al. 1975); type: cell-based; details: keratinisation induced by vitamin A hypovitaminosis; for minimal effective concentration: Mesocricetus auratus, read-out: Konzentration, in der die Keratinisierung von Hamster-Tracheen-Gewebe rückgängig gemacht / geheilt wird (wirksam)
Text: (§1) Nachteilig an diesen bekannten Retinsäureamiden ist ihre geringe therapeutische Breite. Die Substanzen zeigen entweder eine vergleichsweise geringe Aktivität oder wie wirken schon in vergleichsweise geringen Dosen toxisch. So kann beispielsweise Retinsäure-N-etylamid schon in 2 x 10-^9 molaren Konzentrationen die durch Vitamin A-Hypovitaminose induzierte Keratinisierung von Hamster-Tracheen--Gewebe wieder rückgängig machen. Die Methodik hierzu kann G.H. Clamon et al Nature 250; 64-66 (1974) oder M.B. Sporn et al Nature 253, 47-50 (1975)) entnommen werden. Die Keratinisierung wird als praekanzerotischer Prozeß angesehen. Das Retinsäure-N-ethylamid wirkt bereits in einer Konzentration von 9 x 10-^7 molar toxisch auf Tracheenknorpelgewebe vom Hamster in Kultur, wie von M.B. Sporn et al in Nature 263, 110-113 (1976) beschrieben ist.
Bei der Prophylaxe von Praekanzerosen an keratinisiertem Hamster-Tracheen-Gewebe ist die freie Säure jedoch noch in 10^-10 molarer Konzentration wirksam und damit wesentlich aktiver als der Ethylester.

[1] = tested on: Tracheenknorpelgewebe vom Hamster; test: Toxicity on hamster tracheal cartilage tissue in culture (Sporn et al. 1976); type: cell-based; details: result in words; test not named, presumably the tracheal cartilage culture
Text: as §1

Compound | minimal effective concentration (Hamster-Tracheen-Gewebe) | celluläre Toxizität [1] | Konzentration, in der die Keratinisierung von Hamster-Tracheen-Gewebe rückgängig gemacht / geheilt wird (wirksam) (Hamster-Tracheen-Gewebe)
CCOC(=O)c1ccc(NC(=O)/C=C(C)/C=C/C=C(C)/C=C/C2=C(C)CCCC2(C)C)cc1 [Retinsäure-N-(p-ethoxycarbonyl)-phenylamid, reference compound] | 0.01 µM | geringe celluläre Toxizität | –
CC1=C(/C=C/C(C)=C/C=C/C(C)=C/C(=O)Nc2ccc(C(=O)O)cc2)C(C)(C)CCC1 [all-E-Retinsäure-N-(p-carboxy)-phenylamid] | 0.0001 µM | ebenso geringe Toxizität wie der entsprechende Ethylester | –
CC1=C(C#C/C(C)=C/C=C/C(C)=C/C(=O)Nc2ccccc2C(=O)O)C(C)(C)CCC1 [all-E-7,8-Dehydro-retinsäure-N-(o-carboxy)-phenylamid] | – | – | Entsprechende Resultate
CC1=C(/C=C/C(C)=C/C=C/C(C)=C\C(=O)Nc2ccccc2C(=O)O)C(C)(C)CCC1 [13-Z-Retinsäure-N-(o-carboxy)-phenylamid] | – | – | Entsprechende Resultate
CC1=C(/C=C/C(C)=C/C=C/C(C)=C\C(=O)Nc2cccc(C(=O)O)c2)C(C)(C)CCC1 [13-Z-Retinsäure-N-(m-carboxy)-phenylamid] | – | – | Entsprechende Resultate
CC1=C(/C=C/C(C)=C/C=C/C(C)=C\C(=O)Nc2ccc(C(=O)O)cc2)C(C)(C)CCC1 [13-Z-Retinsäure-N-(p-carboxy)-phenylamid] | – | – | Entsprechende Resultate
CC1=C(/C=C/C(C)=C/C=C/C(C)=C/C(=O)Nc2ccccc2C(=O)O)C(C)(C)CCC1 [all-E-Retinsäure-N-(o-carboxy)-phenylamid] | – | – | Entsprechende Resultate
CC1=C(C#C/C(C)=C/C=C/C(C)=C/C(=O)Nc2ccc(C(=O)O)cc2)C(C)(C)CCC1 [all-E-7,8-Dehydro-retinsäure-N-(p-carboxy)-phenylamid] | – | – | Entsprechende Resultate
CC1=C(/C=C/C(C)=C/C=C/C(C)=C/C(=O)Nc2cccc(C(=O)O)c2)C(C)(C)CCC1 [all-E-Retinsäure-N-(m-carboxy)-phenylamid] | – | – | Entsprechende Resultate
CC1=C(C#C/C(C)=C/C=C/C(C)=C/C(=O)Nc2cccc(C(=O)O)c2)C(C)(C)CCC1 [all-E-7,8-Dehydro-retinsäure-N-(m-carboxy)-phenylamid] | – | – | Entsprechende Resultate
CCNC(=O)/C=C(C)/C=C/C=C(C)/C=C/C1=C(C)CCCC1(C)C [Retinsäure-N-ethylamid, reference compound] | 0.002 µM | – | –
